In patent US20050209278A1, “Piperidinyl- and piperazinyl-sulfonylmethyl hydroxamic acids and their use as protease inhibitors” (priority 2002, published 2005):
Read-outs that look alike come from different tables or passages of the source.

Columns and labels:
MMP-1 = target: T1, MMP-1 (Homo sapiens, UniProt P03956); assay: In vitro MMP inhibition, Ki determination (fluorogenic substrate II); assay type: biochemical; conditions: read-out: MMP-1 Ki
T1 construct: made in house; host or cells: MMP-1-transfected HT-1080 cells (spent media)
T1 sequence (P03956 100-469): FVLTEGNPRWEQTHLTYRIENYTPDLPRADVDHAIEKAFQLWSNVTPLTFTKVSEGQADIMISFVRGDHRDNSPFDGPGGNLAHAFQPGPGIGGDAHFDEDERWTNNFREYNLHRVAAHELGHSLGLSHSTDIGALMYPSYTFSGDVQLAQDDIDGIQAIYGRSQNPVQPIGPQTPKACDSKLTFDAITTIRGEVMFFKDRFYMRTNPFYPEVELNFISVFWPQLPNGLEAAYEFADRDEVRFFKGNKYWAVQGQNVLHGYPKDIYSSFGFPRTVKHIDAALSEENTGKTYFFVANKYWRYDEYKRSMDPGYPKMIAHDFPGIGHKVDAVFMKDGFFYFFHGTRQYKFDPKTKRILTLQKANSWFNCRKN

MMP-2 = target: T2, MMP-2 (Homo sapiens, UniProt P08253); assay: as above; assay type: biochemical; conditions: read-out: MMP-2 Ki
T2 construct: made in house; host or cells: MMP-2-transfected p2AHT2 cells
T2 sequence (P08253 110-660): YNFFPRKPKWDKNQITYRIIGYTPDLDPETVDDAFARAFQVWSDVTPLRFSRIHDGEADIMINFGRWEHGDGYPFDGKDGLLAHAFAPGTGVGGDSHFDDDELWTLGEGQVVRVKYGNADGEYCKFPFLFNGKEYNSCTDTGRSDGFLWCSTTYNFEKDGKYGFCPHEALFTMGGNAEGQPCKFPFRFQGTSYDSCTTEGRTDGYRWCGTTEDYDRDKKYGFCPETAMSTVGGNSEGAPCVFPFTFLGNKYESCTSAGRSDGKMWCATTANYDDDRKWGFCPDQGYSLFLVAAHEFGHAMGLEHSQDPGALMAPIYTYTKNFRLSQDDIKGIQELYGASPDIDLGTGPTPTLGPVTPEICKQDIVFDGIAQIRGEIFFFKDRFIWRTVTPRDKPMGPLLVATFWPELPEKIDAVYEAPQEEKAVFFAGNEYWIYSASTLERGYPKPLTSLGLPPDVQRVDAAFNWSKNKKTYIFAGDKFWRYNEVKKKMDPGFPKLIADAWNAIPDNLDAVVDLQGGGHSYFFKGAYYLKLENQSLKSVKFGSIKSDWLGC

SMILES | Ki (MMP-1; value not in parenthesis) [nM] | Ki (MMP-2; value not in parenthesis) [nM] | Ki (MMP-1; value outside parentheses) [nM] | Ki (MMP-2; value outside parentheses) [nM]
CCCCc1ccc(C2CCN(S(=O)(=O)C3(C(=O)NO)CCN(CCOC)CC3)CC2)s1 [Example 55] | > 10000 | 2.2 | – | –
O=C(NO)C1(S(=O)(=O)N2CCN(c3ccc(COCC(F)(F)C(F)F)cc3)CC2)CCOCC1 [Example 71] | > 10000 | 2.35 | – | –
O=C(NO)C1(S(=O)(=O)N2CCN(c3ccc(COCC(F)(F)F)cc3)CC2)CCOCC1 [Example 72] | > 10000 | 2.44 | – | –
O=C(NO)C1(S(=O)(=O)N2CCN(c3ccc(OC4CCC4)c(F)c3)CC2)CCOCC1 [Example 73] | > 10000 | 2.2 | – | –
O=C(NO)C1(S(=O)(=O)N2CCN(c3ccc(OCc4ccccc4)cn3)CC2)CCOCC1 [Example 74] | 3210 | 0.5 | – | –
O=C(NO)C1(S(=O)(=O)N2CCN(c3ccc(-c4ccccc4)cc3)CC2)CCOCC1 [Example 76] | 1340 | 0.19 | – | –
O=C(NO)C1(S(=O)(=O)N2CCN(c3ccc(CCC(F)(F)F)cc3)CC2)CCOCC1 [Example 77] | > 10000 | 0.38 | – | –
CCN1CCC(C(=O)NO)(S(=O)(=O)N2CCN(c3ccc(OCCCC(F)(F)F)cc3)CC2)CC1 [Example 78] | > 10000 | 2.56 | – | –
CC(C)COc1ccc(N2CCN(S(=O)(=O)C3(C(=O)NO)CCOCC3)CC2)cc1Cl [Example 79] | > 10000 | 10.1 | – | –
O=C(NO)C1(S(=O)(=O)N2CCN(c3ccc(OCCCC(F)(F)F)cc3F)CC2)CCOCC1 [Example 81] | > 10000 | 0.407 | – | –
O=C(NO)C1(S(=O)(=O)N2CCN(c3cccc(C(F)(F)F)c3)CC2)CCOCC1 [Example 82] | > 10000 | 8.74 | – | –
O=C(NO)C1(S(=O)(=O)N2CCN(c3ccc(OCCCC(F)(F)F)cn3)CC2)CCOCC1 [Example 83] | 2850 | 0.251 | – | –
CCCCOc1ccc(N2CCN(S(=O)(=O)C3(C(=O)NO)CCN(C(C)(C)C)CC3)CC2)c(F)c1 [Example 84] | > 10000 | 7.53 | – | –
CCCCOc1ccc(N2CCN(S(=O)(=O)C3(C(=O)NO)Cc4ccccc4C3)CC2)nc1 [Example 85] | 4770 | 0.64 | – | –
COCCN1CCC(C(=O)NO)(S(=O)(=O)N2CCN(c3ccc(OCCCCF)cc3)CC2)CC1 [Example 88] | > 10000 | 0.54 | – | –
O=C(NO)C1(S(=O)(=O)N2CCN(c3ccc(OCCCCF)cc3)CC2)CCOCC1 [Example 89] | > 10000 | 0.49 | – | –
CCCCOc1ccc(N2CCN(S(=O)(=O)C3(C(=O)NO)CCOCC3)CC2)c(F)c1 [Example 90] | > 10000 | 1.68 | – | –
CCCCc1ccc(N2CCN(S(=O)(=O)C3(C(=O)NO)CCOCC3)CC2)c(F)c1 [Example 91] | 5110 | 1.22 | – | –
CCCCOc1ccc(N2CCN(S(=O)(=O)C3(C(=O)NO)CCN(c4nc5ccccc5s4)CC3)CC2)cc1 [Example 93] | > 10000 | 6.92 | – | –
O=C(NO)C1(S(=O)(=O)N2CCN(c3ccc(C(F)(F)F)cn3)CC2)CCOCC1 [Example 94] | 767 | 0.66 | – | –
CCCCCc1ccc(N2CCN(S(=O)(=O)C3(C(=O)NO)CCN(c4ncccn4)CC3)CC2)nc1 [Example 95] | > 10000 | 0.64 | – | –
CCCCc1ccc(N2CCN(S(=O)(=O)C3(C(=O)NO)CCN(c4cccnc4)CC3)CC2)nc1 [Example 96] | > 10000 | 0.2 | – | –
CCCCOc1ccc(N2CCN(S(=O)(=O)C3(C(=O)NO)CCN(C(=O)OCC(C)(C)C)CC3)CC2)cc1 [Example 97] | > 10000 | 6.69 | – | –
C#CCOC(=O)N1CCC(C(=O)NO)(S(=O)(=O)N2CCN(c3ccc(OCCCC)cc3)CC2)CC1 [Example 98] | > 10000 | 0.5 | – | –
CCCCc1ccc(N2CCN(S(=O)(=O)C3(C(=O)NO)CCN(c4ncccn4)CC3)CC2)nc1 [Example 99] | 8300 | 0.17 | – | –
CCCCOc1ccc(N2CCN(S(=O)(=O)C3(C(=O)NO)CCOCC3)CC2)nc1 [Example 100] | 1600 | 0.13 | – | –
CCCCOc1ccc(N2CCN(S(=O)(=O)C3(C(=O)NO)CCN(c4ccc(Cl)c(Cl)c4)CC3)CC2)cc1 [Example 250] | > 10000 | 29.9 | – | –

SMILES | Ki (MMP-1; value not in parenthesis) [nM] | Ki (MMP-2; value not in parenthesis) [nM] | Ki (MMP-1; value outside parentheses) [nM] | Ki (MMP-2; value outside parentheses) [nM]
CCCCOc1ccc(N2CCN(S(=O)(=O)C3(C(=O)NO)CCN(c4ccc(Cl)cc4)CC3)CC2)cc1 [Example 251] | – | – | > 10000 | 22.5
CCCCOc1ccc(N2CCN(S(=O)(=O)C3(C(=O)NO)CCN(Cc4ccco4)CC3)CC2)cc1 [Example 252] | – | – | > 10000 | 1.38
CCCCOc1ccc(N2CCN(S(=O)(=O)C3(C(=O)NO)CCN(C(N)=O)CC3)CC2)cc1 [Example 253] | – | – | > 10000 | 0.761
CCCCOc1ccc(N2CCN(S(=O)(=O)C3(C(=O)NO)CCN(C(=O)N(C)C)CC3)CC2)cc1 [Example 254] | – | – | > 10000 | 0.309
CCCCOc1ccc(N2CCN(S(=O)(=O)C3(C(=O)NO)CCN(C(=O)c4ccccc4)CC3)CC2)cc1 [Example 255] | – | – | > 10000 | 0.858
CCCCOc1ccc(N2CCN(S(=O)(=O)C3(C(=O)NO)CCN(c4ccc(C(F)(F)F)cn4)CC3)CC2)cc1 [Example 257] | – | – | > 10000 | 9.64
O=C(NO)C1(S(=O)(=O)N2CCN(c3ccc(SC(F)(F)F)cc3)CC2)CCS(=O)(=O)CC1 [Example 258] | – | – | > 10000 | 4.06
CCCCOc1ccc(N2CCN(S(=O)(=O)C3(C(=O)NO)CCN(C(=O)c4ccncc4)CC3)CC2)cc1 [Example 259] | – | – | > 10000 | 0.468
CCCCOc1ccc(N2CCN(S(=O)(=O)C3(C(=O)NO)CCN(C(=O)C4CC4)CC3)CC2)cc1 [Example 260] | – | – | > 10000 | 0.467
CCc1ccc(N2CCN(S(=O)(=O)C3(C(=O)NO)CCCC3)CC2)nc1 [Example 261] | – | – | 632 | 0.276
CCc1ccc(N2CCN(S(=O)(=O)C3(C(=O)NO)CCCCC3)CC2)nc1 [Example 263] | – | – | 605 | 0.188
CCCCOc1ccc(N2CCN(S(=O)(=O)C3(C(=O)NO)CCN(c4ccccc4)CC3)CC2)cc1 [Example 264] | – | – | > 10000 | 8.23
CCCCOc1ccc(N2CCN(S(=O)(=O)C3(C(=O)NO)CCN(C(=O)CC(F)(F)F)CC3)CC2)cc1 [Example 265] | – | – | > 10000 | 0.878
CCCCOc1ccc(N2CCN(S(=O)(=O)C3(C(=O)NO)CCN(C(=O)c4cccnc4)CC3)CC2)cc1 [Example 266] | – | – | > 10000 | 0.422
CCCCOc1ccc(N2CCN(S(=O)(=O)C3(C(=O)NO)CCN(C(=O)C(C)(C)C)CC3)CC2)cc1 [Example 267] | – | – | > 10000 | 0.836
CCCCOc1ccc(N2CCN(S(=O)(=O)C3(C(=O)NO)CCN(C(=O)COC)CC3)CC2)cc1 [Example 268] | – | – | 9320 | 0.564
CCCCOc1ccc(N2CCN(S(=O)(=O)C3(C(=O)NO)CCN(C=O)CC3)CC2)cc1 [Example 269] | – | – | 6400 | 0.436
CCCCc1ccc(N2CCN(S(=O)(=O)C3(C(=O)NO)CCN(CCOC)CC3)CC2)nc1 [Example 270] | – | – | > 10000 | 0.176
CCCCOc1ccc(N2CCN(S(=O)(=O)C3(C(=O)NO)CCN(C(=O)CO)CC3)CC2)cc1 [Example 271] | – | – | 7470 | 0.668
CCCCCc1ccc(N2CCN(S(=O)(=O)C3(C(=O)NO)CCN(C4CC4)CC3)CC2)cc1 [Example 272] | – | – | > 10000 | 0.662
CCCCOc1ccc(N2CCN(S(=O)(=O)C3(C(=O)NO)CCN(C(=O)C(C)C)CC3)CC2)cc1 [Example 273] | – | – | > 10000 | 0.622
CCCCOc1ccc(N2CCN(S(=O)(=O)C3(C(=O)NO)CCN(C(=O)CC)CC3)CC2)cc1 [Example 274] | – | – | > 10000 | 0.826
CCCCOc1ccc(N2CCN(S(=O)(=O)C3(C(=O)NO)CCN(c4ccc(C)nn4)CC3)CC2)cc1 [Example 275] | – | – | > 10000 | 0.381
CCCCOc1ccc(N2CCN(S(=O)(=O)C3(C(=O)NO)CCNCC3)CC2)cc1 [Example 276] | – | – | > 10000 | 5.7
CCCCOc1ccc(N2CCN(S(=O)(=O)C3(C(=O)NO)CCN(C(=O)c4ccccn4)CC3)CC2)cc1 [Example 277] | – | – | > 10000 | 0.42
CCCCOc1ccc(N2CCN(S(=O)(=O)C3(C(=O)NO)CCN(C(=O)CCCC)CC3)CC2)cc1 [Example 278] | – | – | > 10000 | 0.81
CC(C)CCOc1ccc(N2CCN(S(=O)(=O)C3(C(=O)NO)CCOCC3)CC2)cc1 [Example 279] | – | – | > 10000 | 1.11
